Where two headings read alike, the source gives them in different places.
Legend:
CYP 2C9 and CYP 2C19 = settings: reported by Mizayawa et al.; cited from earlier work
[1] = PTR-MS of volatile organic compounds in exhaled breath of vegan persons, volunteers and liver patients, also grouped by LiMAx value
[2] = tested on: mammary, liver, lung, and other cancers; settings: literature reports (Mizayawa et al.; Gold 1997); cited from earlier work
[3] = in vivo

| Compound | concentration in exhaled breath (m/z 137) [3] | concentration in the expiratory air (m/z 137) [3] | also measured |
| --- | --- | --- | --- |
| C=C(C)[C@H]1CC=C(C)CC1 [limonene] |  |  | metabolization by enzymes (CYP 2C9 and CYP 2C19): metabolized by enzymes of the Cytochrome P450 family; concentration in exhaled breath (m/z 137) ([1]; comparison of the three groups (vegan diet, normal diet, liver disease patients), taking error bars into account, FIG. 1A): almost identical; concentration in the expiratory air (m/z 137) ([1]; patients with LiMAx value below 176 compared to LiMAx 176 to 351 or above 351, FIG. 1B): significantly increased |
| C=C(C)[C@@H]1CC=C(CO)CC1 [perillyl alcohol] |  |  | chemopreventive activity / cancer prevention [2]: prevent mammary, liver, lung, and other cancers |

Further lines, with some results ahead:

| concentration in exhaled breath (m/z 137) [3] | concentration in the expiratory air (m/z 137) [3] | Compound | also measured |
| --- | --- | --- | --- |
| almost identical | significantly increased | CC1=CCC2CC1C2(C)C (stereo not drawn) [α-pinene] |  |
| almost identical | significantly increased | C=C1CCC2CC1C2(C)C (stereo not drawn) [β-pinene] |  |
| almost identical | significantly increased | γ-pinene |  |

Reference: patent publication US11103158B2, “Pure non-invasive method for identification of organ diseases or impaired organ function by investigation of marker substances in exhaled air stimulated by inhaled marker substances” (FREIE UNIVERSITÄT BERLIN, priority 2015, dated 2021)
